Experiments:
[1] = molecular target: T1, ATP-dependent translocase ABCB1 (Homo sapiens, UniProt P08183); test: TP_TRANSPORTER: transepithelial transport (basal to apical) in MDR1-expressing LLC-PK1 cells; format: functional, cell-based; details: pig
[2] = molecular target: T1, ATP-dependent translocase ABCB1; test: TP_TRANSPORTER: inhibition of Digoxin transepithelial transport (basal to apical) (Digoxin: 5 uM) in Caco-2 cells; format: functional, cell-based

T1 sequence (P08183 whole entry): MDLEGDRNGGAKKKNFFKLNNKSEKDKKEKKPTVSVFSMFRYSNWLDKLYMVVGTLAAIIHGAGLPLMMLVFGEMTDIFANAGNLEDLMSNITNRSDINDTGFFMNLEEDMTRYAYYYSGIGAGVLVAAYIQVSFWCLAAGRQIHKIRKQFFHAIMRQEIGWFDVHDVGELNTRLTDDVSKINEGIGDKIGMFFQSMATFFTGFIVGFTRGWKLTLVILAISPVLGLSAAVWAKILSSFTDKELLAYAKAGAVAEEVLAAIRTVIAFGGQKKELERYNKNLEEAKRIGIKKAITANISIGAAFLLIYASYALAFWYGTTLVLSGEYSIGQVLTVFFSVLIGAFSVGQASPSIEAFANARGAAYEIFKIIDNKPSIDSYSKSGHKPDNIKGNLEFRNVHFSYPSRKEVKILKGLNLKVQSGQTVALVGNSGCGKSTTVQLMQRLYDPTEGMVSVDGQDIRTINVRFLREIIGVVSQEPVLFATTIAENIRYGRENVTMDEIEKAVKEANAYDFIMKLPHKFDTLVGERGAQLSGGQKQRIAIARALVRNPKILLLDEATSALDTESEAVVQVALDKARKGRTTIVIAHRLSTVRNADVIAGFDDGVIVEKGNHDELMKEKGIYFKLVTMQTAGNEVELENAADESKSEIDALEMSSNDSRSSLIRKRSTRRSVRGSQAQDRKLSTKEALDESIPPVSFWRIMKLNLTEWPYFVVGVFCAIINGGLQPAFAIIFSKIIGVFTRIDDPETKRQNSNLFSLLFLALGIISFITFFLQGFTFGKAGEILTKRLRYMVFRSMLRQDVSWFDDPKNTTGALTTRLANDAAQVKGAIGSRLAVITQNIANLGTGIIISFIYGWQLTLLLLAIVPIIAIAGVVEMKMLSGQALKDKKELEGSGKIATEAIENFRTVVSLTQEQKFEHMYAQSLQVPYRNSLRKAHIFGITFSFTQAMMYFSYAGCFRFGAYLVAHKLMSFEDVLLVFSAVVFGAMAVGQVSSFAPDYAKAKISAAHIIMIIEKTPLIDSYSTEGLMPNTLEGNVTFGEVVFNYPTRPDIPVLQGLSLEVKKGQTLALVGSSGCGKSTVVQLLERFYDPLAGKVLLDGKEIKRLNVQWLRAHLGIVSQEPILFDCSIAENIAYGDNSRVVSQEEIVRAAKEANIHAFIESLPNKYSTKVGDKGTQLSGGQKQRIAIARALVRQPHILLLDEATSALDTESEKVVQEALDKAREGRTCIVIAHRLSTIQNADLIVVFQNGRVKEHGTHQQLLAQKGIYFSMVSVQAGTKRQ

| Structure (SMILES) | Activity [1] | IC50 [2] [nM] |
| --- | --- | --- |
| CNCCCC(C#N)(c1ccc(OC)c(OC)c1)C(C)C (stereo unspecified) | substrate [+] |  |
| COc1ccc([C@@](C#N)(CCCN)C(C)C)cc1OC | substrate [+] |  |

Other lines, results leading:

| Activity [1] | IC50 [2] [nM] | Structure (SMILES) |
| --- | --- | --- |
|  | 1600 | COc1ccc([C@@](C#N)(CCCN(C)CCc2ccc(OC)c(OC)c2)C(C)C)cc1O |
| substrate [+] | 300 | COc1ccc(CCNCCCC(C#N)(c2ccc(OC)c(OC)c2)C(C)C)cc1OC (stereo unspecified) [NORVERAPAMIL] |
| substrate [+] |  | COc1ccc(CCN(C)CCCC(C#N)(c2ccc(OC)c(OC)c2)C(C)C)cc1OC (stereo unspecified) [VERAPAMIL] |
